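Where inhibition never reached the appropriate level, the endpoint shown equals the highest concentration tested. Otherwise, values were interpolated linearly from a five-concentration, 48-hour dose response in 96-well plates. TGI denotes the concentration required for complete inhibition of growth.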
Experiments:
Test in all cases: DTP human tumour cell line panel, 48 h
[1] = test system: A498 renal
[2] = test system: TK-10 renal
[3] = test system: CAKI-1 renal
[4] = test system: HL-60(TB) leukemia
[5] = test system: NCI-H522 lung
[6] = test system: UO-31 renal
[7] = test system: SK-MEL-5 melanoma
[8] = test system: MOLT-4 leukemia
[9] = test system: T-47D breast
[10] = test system: SNB-19 CNS
[11] = test system: OVCAR-8 ovarian
[12] = test system: HT29 colon
[13] = test system: UACC-257 melanoma
[14] = test system: UACC-62 melanoma
[15] = test system: SR leukemia
[16] = test system: HCC-2998 colon
[17] = test system: BT-549 breast
[18] = test system: SK-OV-3 ovarian
[19] = test system: ACHN renal
[20] = test system: A549 NSCLC
[21] = test system: SF-539 CNS
[22] = test system: RPMI-8226 leukemia
[23] = test system: M14 melanoma
[24] = test system: NCI-H460 lung
[25] = test system: KM12 colon
[26] = test system: SF-268 CNS
[27] = test system: MDA-MB-435
[28] = test system: CCRF-CEM leukemia
[29] = test system: COLO 205 colon
[30] = test system: IGROV1 ovarian
[31] = test system: NCI-H23 lung
[32] = test system: SF-295 CNS
[33] = test system: NCI-H226 lung
[34] = test system: SN12C renal
[35] = test system: K-562 leukemia
[36] = test system: HCT-15 colon
[37] = test system: 786-0 renal
[38] = test system: HCT-116 colon
[39] = test system: SW-620 colon
[40] = test system: SK-MEL-28 melanoma
[41] = test system: HS 578T breast
[42] = test system: DU-145 prostate
[43] = test system: MDA-MB-231 breast
[44] = test system: SNB-75 CNS
[45] = test system: HOP-62 NSCLC
[46] = test system: MCF7 breast
[47] = test system: EKVX NSCLC
[48] = test system: MALME-3M melanoma
[49] = test system: LOX IMVI melanoma
[50] = test system: MDA-N
[51] = test system: PC-3 prostate
[52] = test system: RXF 393 renal
[53] = test system: OVCAR-5 ovarian
[54] = test system: SK-MEL-2 melanoma
[55] = test system: OVCAR-4 ovarian
[56] = test system: HOP-92 NSCLC
[57] = test system: U251 CNS
[58] = test system: NCI/ADR-RES ovarian
[59] = test system: OVCAR-3 ovarian

For `C=CCOCn1ccc(=O)[nH]c1=O`, the TGI [1] was greater than 100 µM, the TGI [2] was greater than 100 µM and the TGI [3] was greater than 100 µM. The TGI [4] was greater than 100 µM, the TGI [5] was greater than 100 µM and the TGI [6] was greater than 100 µM. For the same compound, the TGI [7] was greater than 100 µM, the TGI [8] was greater than 100 µM and the TGI [9] was greater than 100 µM. It also gave a TGI [10] greater than 100 µM, a TGI [11] greater than 100 µM and a TGI [12] greater than 100 µM. For the same compound, the TGI [13] was greater than 100 µM, the TGI [14] was greater than 100 µM and the TGI [15] was greater than 100 µM. For the same compound, the TGI [16] was greater than 100 µM, the TGI [17] was greater than 100 µM and the TGI [18] was greater than 100 µM. The TGI [19] was greater than 100 µM, the TGI [20] was greater than 100 µM and the TGI [21] was greater than 100 µM. It also gave a TGI [22] greater than 100 µM, a TGI [23] greater than 100 µM and a TGI [24] greater than 100 µM. It also gave a TGI [25] greater than 100 µM, a TGI [26] greater than 100 µM and a TGI [27] greater than 100 µM. It also gave a TGI [28] greater than 100 µM, a TGI [29] greater than 100 µM and a TGI [30] greater than 100 µM. The TGI [31] was greater than 100 µM, the TGI [32] was greater than 100 µM and the TGI [33] was greater than 100 µM. It also gave a TGI [34] greater than 100 µM, a TGI [35] greater than 100 µM and a TGI [36] greater than 100 µM. It also gave a TGI [37] greater than 100 µM, a TGI [38] greater than 100 µM and a TGI [39] greater than 100 µM. The TGI [40] was greater than 100 µM, the TGI [41] was greater than 100 µM and the TGI [42] was greater than 100 µM. It also gave a TGI [43] greater than 100 µM, a TGI [44] greater than 100 µM and a TGI [45] greater than 100 µM. It also gave a TGI [46] greater than 100 µM, a TGI [47] greater than 100 µM and a TGI [48] greater than 100 µM. It also gave a TGI [49] greater than 100 µM, a TGI [50] greater than 100 µM and a TGI [51] greater than 100 µM.
Work on `COC(=O)[C@H](Cc1ccccc1)NC(=O)N1CCN(C(=O)N[C@@H](Cc2ccccc2)C(=O)OC)CCN(C(=O)N[C@@H](Cc2ccccc2)C(=O)OC)CC1` yielded a TGI [1] greater than 100 µM, a TGI [2] greater than 100 µM and a TGI [52] greater than 100 µM. For the same compound, the TGI [53] was greater than 100 µM, the TGI [3] was greater than 100 µM and the TGI [4] was greater than 100 µM. For the same compound, the TGI [54] was greater than 100 µM, the TGI [5] was greater than 100 µM and the TGI [6] was greater than 100 µM. The TGI [7] was greater than 100 µM, the TGI [8] was greater than 100 µM and the TGI [9] was greater than 100 µM. For the same compound, the TGI [10] was greater than 100 µM, the TGI [11] was greater than 100 µM and the TGI [12] was greater than 100 µM. The TGI [13] was greater than 100 µM, the TGI [14] was greater than 100 µM and the TGI [16] was greater than 100 µM. The TGI [17] was greater than 100 µM, the TGI [55] was greater than 100 µM and the TGI [18] was greater than 100 µM. For the same compound, the TGI [19] was greater than 100 µM, the TGI [20] was greater than 100 µM and the TGI [22] was greater than 100 µM. For the same compound, the TGI [23] was greater than 100 µM, the TGI [24] was greater than 100 µM and the TGI [25] was greater than 100 µM. The TGI [26] was greater than 100 µM, the TGI [27] was greater than 100 µM and the TGI [28] was greater than 100 µM. It also gave a TGI [29] greater than 100 µM, a TGI [30] greater than 100 µM and a TGI [56] greater than 100 µM. For the same compound, the TGI [31] was greater than 100 µM, the TGI [32] was greater than 100 µM and the TGI [33] was greater than 100 µM. For the same compound, the TGI [34] was greater than 100 µM, the TGI [57] was greater than 100 µM and the TGI [35] was greater than 100 µM. For the same compound, the TGI [36] was greater than 100 µM, the TGI [37] was greater than 100 µM and the TGI [38] was greater than 100 µM. The TGI [58] was greater than 100 µM, the TGI [39] was greater than 100 µM and the TGI [40] was greater than 100 µM. It also gave a TGI [59] greater than 100 µM, a TGI [41] greater than 100 µM and a TGI [42] greater than 100 µM. For the same compound, the TGI [44] was greater than 100 µM, the TGI [45] was greater than 100 µM and the TGI [46] was greater than 100 µM. For the same compound, the TGI [47] was greater than 100 µM, the TGI [48] was greater than 100 µM and the TGI [49] was greater than 100 µM. For the same compound, the TGI [50] was greater than 100 µM and the TGI [51] was greater than 100 µM.
`COC(=N)C12C(N)=NC(OC)(OC)C1(C#N)C21C(=O)N(c2ccccc2)N=C1C` (stereo not given) was tested, and the TGI [1] was greater than 100 µM, the TGI [52] was greater than 100 µM and the TGI [53] was greater than 100 µM. For the same compound, the TGI [3] was greater than 100 µM, the TGI [4] was greater than 100 µM and the TGI [54] was greater than 100 µM. For the same compound, the TGI [5] was greater than 100 µM, the TGI [6] was greater than 100 µM and the TGI [8] was greater than 100 µM. It also gave a TGI [9] greater than 100 µM, a TGI [10] greater than 100 µM and a TGI [11] greater than 100 µM. The TGI [12] was greater than 100 µM, the TGI [13] was greater than 100 µM and the TGI [14] was greater than 100 µM. For the same compound, the TGI [15] was greater than 100 µM, the TGI [16] was greater than 100 µM and the TGI [17] was greater than 100 µM. The TGI [55] was greater than 100 µM, the TGI [18] was greater than 100 µM and the TGI [19] was greater than 100 µM. For the same compound, the TGI [20] was greater than 100 µM, the TGI [21] was greater than 100 µM and the TGI [22] was greater than 100 µM. The TGI [23] was greater than 100 µM, the TGI [24] was greater than 100 µM and the TGI [25] was greater than 100 µM. The TGI [26] was greater than 100 µM, the TGI [27] was greater than 100 µM and the TGI [28] was greater than 100 µM. The TGI [29] was greater than 100 µM, the TGI [30] was greater than 100 µM and the TGI [56] was greater than 100 µM. For the same compound, the TGI [31] was greater than 100 µM, the TGI [32] was greater than 100 µM and the TGI [33] was greater than 100 µM. It also gave a TGI [34] greater than 100 µM, a TGI [57] greater than 100 µM and a TGI [35] greater than 100 µM. For the same compound, the TGI [36] was greater than 100 µM, the TGI [37] was greater than 100 µM and the TGI [38] was greater than 100 µM. The TGI [58] was greater than 100 µM, the TGI [39] was greater than 100 µM and the TGI [40] was greater than 100 µM. The TGI [59] was greater than 100 µM, the TGI [42] was greater than 100 µM and the TGI [43] was greater than 100 µM. The TGI [44] was greater than 100 µM, the TGI [45] was greater than 100 µM and the TGI [46] was greater than 100 µM. It also gave a TGI [47] greater than 100 µM, a TGI [48] greater than 100 µM and a TGI [50] greater than 100 µM. It also gave a TGI [51] greater than 100 µM.
`O=C(O)C1CC(c2ccccc2)=NN1c1ccccc1` (stereo not given) gave a TGI [1] greater than 100 µM, a TGI [2] greater than 100 µM and a TGI [52] greater than 100 µM. The TGI [53] was greater than 100 µM, the TGI [3] was greater than 100 µM and the TGI [4] was greater than 100 µM. For the same compound, the TGI [54] was greater than 100 µM, the TGI [5] was greater than 100 µM and the TGI [6] was greater than 100 µM. For the same compound, the TGI [7] was greater than 100 µM, the TGI [8] was greater than 100 µM and the TGI [9] was greater than 100 µM. The TGI [10] was greater than 100 µM, the TGI [11] was greater than 100 µM and the TGI [12] was greater than 100 µM. The TGI [13] was greater than 100 µM, the TGI [14] was greater than 100 µM and the TGI [16] was 57.4 µM. For the same compound, the TGI [17] was greater than 100 µM, the TGI [55] was greater than 100 µM and the TGI [18] was greater than 100 µM. For the same compound, the TGI [19] was greater than 100 µM, the TGI [20] was greater than 100 µM and the TGI [21] was greater than 100 µM. For the same compound, the TGI [22] was greater than 100 µM, the TGI [23] was greater than 100 µM and the TGI [24] was greater than 100 µM. It also gave a TGI [25] greater than 100 µM, a TGI [26] greater than 100 µM and a TGI [27] greater than 100 µM. For the same compound, the TGI [28] was greater than 100 µM, the TGI [29] was greater than 100 µM and the TGI [30] was greater than 100 µM. For the same compound, the TGI [56] was greater than 100 µM, the TGI [31] was greater than 100 µM and the TGI [32] was greater than 100 µM. The TGI [33] was greater than 100 µM, the TGI [34] was greater than 100 µM and the TGI [57] was greater than 100 µM. The TGI [35] was greater than 100 µM, the TGI [36] was greater than 100 µM and the TGI [37] was greater than 100 µM. For the same compound, the TGI [38] was greater than 100 µM, the TGI [58] was greater than 100 µM and the TGI [39] was greater than 100 µM. The TGI [40] was greater than 100 µM, the TGI [59] was greater than 100 µM and the TGI [41] was 81.6 µM. The TGI [42] was greater than 100 µM, the TGI [43] was greater than 100 µM and the TGI [44] was greater than 100 µM. For the same compound, the TGI [45] was greater than 100 µM, the TGI [46] was greater than 100 µM and the TGI [47] was 88.9 µM. It also gave a TGI [48] of 96.4 µM, a TGI [49] greater than 100 µM and a TGI [50] greater than 100 µM. The TGI [51] was greater than 100 µM.

— PubChem BioAssay (NCI)
